The assay relates to KB. Kind of assay: Concentration required to inhibit growth of human epidermoid carcinoma (KB) cell line; IA= Inactive. Type of assay: functional, cell-based.

The structures appear in SMILES notation.

Regarding `COC1C=C(C(=O)O)C(OC)c2ccccc21` (stereo not given), the IC50 result was “Not Active”.
For the compound `O=C(O)C1=CCc2ccccc2C1O` (stereo not given), the IC50 result is given as “Not Active”.
Under `COC1C(C(=O)O)=CCc2ccccc21` (stereo not given) stands “Not Active”; under `O=C(O)C1=CCc2ccccc2C1`, “Not Active”; under `O=C1C(O)=C(CCCO)C(=O)c2ccccc21`, “Not Active”.

For the origin of these results see ChEMBL document CHEMBL1137099, “Synthesis of novel rhinacanthins and related anticancer naphthoquinone esters” (J Med Chem, 2004).
